# Experimental data published in patent US20150094220A1, “METHOD TO PREDICT THE SAFETY OF THE TREATMENT WITH A NICOTINIC CHOLINERGIC RECEPTOR AGONIST” (GENETRACER BIOTECH S.L, priority 2012, published 2015).
# Experiments:
# [1] = Observational pharmacogenetic study: dose reduction due to adverse effects in smokers treated with varenicline; assay type: in vivo, human; details: for Linear OR, dose reduction due to adverse effects: linear model
# Protocol: (§1) In a study conducted on 807 patients from the Tobacco Addiction Units of 22 hospitals and health centers in Spain and Portugal, more than 300 SNPs relating to the relevant pathways with respect to the efficacy of the 3 first-line pharmacological tobacco cessation treatments were assessed: nicotine replacement therapy (NRT), bupropion and varenicline. The safety was assessed after three months of abstinence from tobacco consumption in relation to the presence of adverse effects which determined the reduction or withdrawal of the initially applied treatment.
# (§2) The analysis process was carried out after applying the usual checks for correcting data entry errors. The status of the subjects was first characterized either as “cases” or as “controls”, depending on the safety results obtained after 3 months of follow-up after the establishment of the chosen tobacco cessation treatment. Those individuals in whom (a) it was necessary to reduce the dose of the chosen treatment due to the presence of treatment-related adverse effects, or (b) it was necessary to suspend or change the treatment due to intolerance to same according to the assessment of his/her doctor, were considered as “cases”. The different statistical analysis models thus provided information about the safety associated with the presence of a certain genetic pattern.
# (§3) To assess the possibility of confounding biases as a result of the mixed population analysis, and also as a control for genotyping errors, the Hardy-Weinberg disequilibrium test was performed both in the “cases” and in the corresponding “controls”. The result of this test was assessed before analyzing the results obtained in the various logistic regression models which were used to assess the association between the specific SNPs and the safety results of the prescribed treatments. The following penetrance models were used in the logistic regression models: dominant, recessive, additive, over-dominant and log-additive. The statistical analyses were performed both with the allelic frequency and with the genotypic frequency, the latter being those which provide the most information about the associations to be replicated. All the results were presented as odds-ratios (OR) with the corresponding 95% confidence intervals and statistical significance value thereof.
# (§4) Finally, the discriminating power of the different genetic indicators (SNPs) analyzed with respect to the safety results was assessed by means of […] and area under the curve analysis. The final purpose of this analysis strategy was to enable estimating the probability of adverse effects that a subject with a certain genotypic profile who starts a tobacco cessation treatment (particularly with varenicline) may have and adjusting and monitoring his/her treatment based on this information.
# (§5) For the purpose of determining the pharmacogenetic profile associated with the safety of a pharmacological smoking cessation treatment, the results obtained in terms of abstinence from tobacco consumption after 3 months were evaluated in relation to the presence of adverse effects which determined the reduction or withdrawal of the initially applied treatment. The subjects were divided into three groups which were treated with NRT, bupropion or varenicline.
# (§6) It is an observational study with the intervention of 21 Tobacco Addiction Units from the public health services in Spain and Portugal. A total of 807 subjects were invited to participate in the study, 798 of whom provided their sociodemographic and clinical data taking a test with 144 items. They also provided a biological sample for subsequent genotyping. 483 individuals were treated with varenicline. The information of both the phenotypic and genotypic variables was collected for 479 patients treated with varenicline before establishing the pharmacological treatment.
# (§7) The clinical results were linked to the safety of the pharmacological treatments. […]
# [2] = oral; cited from earlier work
# [3] = target: α4β2 neuronal nicotinic acetylcholine receptor subtype (Homo sapiens, UniProt P17787+P43681); details: selective partial agonist; cited from earlier work
# Chain of α4β2 neuronal nicotinic acetylcholine receptor subtype (P43681 29-627 limits assumed): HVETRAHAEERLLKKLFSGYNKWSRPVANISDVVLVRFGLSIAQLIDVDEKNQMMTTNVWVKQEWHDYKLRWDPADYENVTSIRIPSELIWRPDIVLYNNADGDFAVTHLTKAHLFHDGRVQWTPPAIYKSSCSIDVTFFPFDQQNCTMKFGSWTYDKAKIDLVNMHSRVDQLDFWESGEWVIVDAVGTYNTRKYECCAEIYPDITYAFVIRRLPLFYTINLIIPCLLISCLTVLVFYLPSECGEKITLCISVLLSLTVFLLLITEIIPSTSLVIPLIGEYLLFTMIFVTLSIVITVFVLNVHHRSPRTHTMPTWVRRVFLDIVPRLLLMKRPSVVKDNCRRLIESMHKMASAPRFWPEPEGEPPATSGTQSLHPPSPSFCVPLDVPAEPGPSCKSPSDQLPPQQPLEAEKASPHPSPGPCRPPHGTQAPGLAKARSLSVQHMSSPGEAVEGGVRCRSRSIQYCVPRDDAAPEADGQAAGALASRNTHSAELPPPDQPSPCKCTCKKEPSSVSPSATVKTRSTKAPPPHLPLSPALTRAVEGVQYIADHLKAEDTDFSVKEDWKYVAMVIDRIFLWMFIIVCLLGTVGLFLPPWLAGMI
# Chain of α4β2 neuronal nicotinic acetylcholine receptor subtype (P17787 26-502): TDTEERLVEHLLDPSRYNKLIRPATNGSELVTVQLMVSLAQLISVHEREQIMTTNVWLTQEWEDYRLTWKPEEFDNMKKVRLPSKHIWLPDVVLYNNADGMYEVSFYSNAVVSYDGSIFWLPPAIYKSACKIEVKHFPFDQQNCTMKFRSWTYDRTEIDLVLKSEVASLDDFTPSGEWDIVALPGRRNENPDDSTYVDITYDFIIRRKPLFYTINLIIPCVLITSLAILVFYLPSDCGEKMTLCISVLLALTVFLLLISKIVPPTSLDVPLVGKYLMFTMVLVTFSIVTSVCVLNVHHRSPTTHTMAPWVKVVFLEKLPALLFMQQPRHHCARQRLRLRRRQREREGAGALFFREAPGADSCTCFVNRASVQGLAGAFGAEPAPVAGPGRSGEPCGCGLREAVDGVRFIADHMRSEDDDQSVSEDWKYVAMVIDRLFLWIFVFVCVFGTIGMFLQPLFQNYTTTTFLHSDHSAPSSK
# [4] = Observational pharmacogenetic study: treatment suspension due to adverse effects in smokers treated with varenicline; assay type: in vivo, human
# Protocol: as §1, §2, §3, §4, §5, §6, §7
# [5] = 1 mg twice a day, 3-month treatment studies; cited from earlier work
smiles,measurement,setting,value
"c1cnc2cc3c(cc2n1)C1CNCC3C1 [varenicline, 7,8,9,10-tetrahydro-6,10-methane-6H-pyrazino[2,3-h][3]benzazepine]","OR (95% CI), alleles, dose reduction due to adverse effects","[1]; rs763132 (ARHGAP18) alleles T, G",0.43
same,"OR, dose reduction due to adverse effects",[1]; rs763132 (ARHGAP18) genotype G/G,0.13
same,"OR, dose reduction due to adverse effects",[1]; rs763132 (ARHGAP18) genotype G/T,0.49
same,"OR, dose reduction due to adverse effects",[1]; rs763132 (ARHGAP18) genotype T/T (reference),1.00
same,"Linear OR, dose reduction due to adverse effects",[1]; rs763132 (ARHGAP18) genotype,0.44
same,"OR (95% CI), alleles, dose reduction due to adverse effects","[1]; rs1183035 (MAOB) alleles T, C",0.28
same,"OR, dose reduction due to adverse effects",[1]; rs1183035 (MAOB) genotype C/C,0.00
same,"OR, dose reduction due to adverse effects",[1]; rs1183035 (MAOB) genotype C/T,0.83
same,"OR, dose reduction due to adverse effects",[1]; rs1183035 (MAOB) genotype T/T (reference),1.00
same,"Linear OR, dose reduction due to adverse effects",[1]; rs1183035 (MAOB) genotype,0.42
same,"OR (95% CI), alleles, dose reduction due to adverse effects","[1]; rs4474069 (RAPGEF1) alleles C, T",1.82
same,"OR, dose reduction due to adverse effects",[1]; rs4474069 (RAPGEF1) genotype C/C (reference),1.00
same,"OR, dose reduction due to adverse effects",[1]; rs4474069 (RAPGEF1) genotype C/T,2.68
same,"OR, dose reduction due to adverse effects",[1]; rs4474069 (RAPGEF1) genotype T/T,1.33
same,"Linear OR, dose reduction due to adverse effects",[1]; rs4474069 (RAPGEF1) genotype,1.87
same,absorption,[2],complete
same,systemic availability,[2],high
same,time of maximum plasma concentrations after intake,[2],3 to 4 h
same,affinity,[3],high affinity
same,"Linear OR, treatment suspension due to adverse effects","[4]; human, in vivo, 3 months",2.43
same,"OR (95% CI), alleles, treatment suspension due to adverse effects","[4]; human, in vivo, 3 months",2.41
same,"OR (95% CI), alleles, treatment suspension due to adverse effects","[4]; rs7146 (C19orf6) alleles C, T",1.83
same,"OR, treatment suspension due to adverse effects",[4]; rs7146 (C19orf6) genotype C/C (reference),1.00
same,"OR, treatment suspension due to adverse effects",[4]; rs7146 (C19orf6) genotype C/T,1.61
same,"OR, treatment suspension due to adverse effects",[4]; rs7146 (C19orf6) genotype T/T,4.05
same,"Linear OR, treatment suspension due to adverse effects","[4]; rs7146 (C19orf6) genotype, linear model",1.93
same,"OR (95% CI), alleles, treatment suspension due to adverse effects","[4]; rs477292 (OPRM1) alleles G, A",1.91
same,"OR, treatment suspension due to adverse effects",[4]; rs477292 (OPRM1) genotype A/A,3.54
same,"OR, treatment suspension due to adverse effects",[4]; rs477292 (OPRM1) genotype A/G,2.13
same,"OR, treatment suspension due to adverse effects",[4]; rs477292 (OPRM1) genotype G/G (reference),1.00
same,"Linear OR, treatment suspension due to adverse effects","[4]; rs477292 (OPRM1) genotype, linear model",1.99
same,"OR (95% CI), alleles, treatment suspension due to adverse effects","[4]; rs495491 (OPRM1) alleles T, C",2.08
same,"OR, treatment suspension due to adverse effects",[4]; rs495491 (OPRM1) genotype C/C,3.80
same,"OR, treatment suspension due to adverse effects",[4]; rs495491 (OPRM1) genotype C/T,2.77
same,"OR, treatment suspension due to adverse effects",[4]; rs495491 (OPRM1) genotype T/T (reference),1.00
same,"Linear OR, treatment suspension due to adverse effects","[4]; rs495491 (OPRM1) genotype, linear model",2.19
same,"OR (95% CI), alleles, treatment suspension due to adverse effects","[4]; rs3778151 (OPRM1) alleles T, C",2.40
same,"OR, treatment suspension due to adverse effects",[4]; rs3778151 (OPRM1) genotype C/C,8.48
same,"OR, treatment suspension due to adverse effects",[4]; rs3778151 (OPRM1) genotype C/T,2.26
same,"OR, treatment suspension due to adverse effects",[4]; rs3778151 (OPRM1) genotype T/T (reference),1.00
same,"Linear OR, treatment suspension due to adverse effects","[4]; rs3778151 (OPRM1) genotype, linear model",2.55
same,"OR (95% CI), alleles, treatment suspension due to adverse effects","[4]; rs7930792 (UBASH3B) alleles C, G",0.52
same,"OR, treatment suspension due to adverse effects",[4]; rs7930792 (UBASH3B) genotype C/C (reference),1.00
same,"OR, treatment suspension due to adverse effects",[4]; rs7930792 (UBASH3B) genotype C/G,0.58
same,"OR, treatment suspension due to adverse effects",[4]; rs7930792 (UBASH3B) genotype G/G,0.21
same,"Linear OR, treatment suspension due to adverse effects","[4]; rs7930792 (UBASH3B) genotype, linear model",0.52
same,"OR (95% CI), alleles, treatment suspension due to adverse effects","[4]; rs9479757 (OPRM1) alleles G, A",3.27
same,"OR, treatment suspension due to adverse effects",[4]; rs9479757 (OPRM1) genotype A/A,12.30
same,"OR, treatment suspension due to adverse effects",[4]; rs9479757 (OPRM1) genotype A/G,3.46
same,"OR, treatment suspension due to adverse effects",[4]; rs9479757 (OPRM1) genotype G/G (reference),1.00
same,"Linear OR, treatment suspension due to adverse effects","[4]; rs9479757 (OPRM1) genotype, linear model",3.47
same,"OR (95% CI), alleles, treatment suspension due to adverse effects","[4]; rs12423809 (C12orf36) alleles A, C",1.91
same,"OR, treatment suspension due to adverse effects",[4]; rs12423809 (C12orf36) genotype A/A (reference),1.00
same,"OR, treatment suspension due to adverse effects",[4]; rs12423809 (C12orf36) genotype A/C,1.59
same,"OR, treatment suspension due to adverse effects",[4]; rs12423809 (C12orf36) genotype C/C,3.53
same,"Linear OR, treatment suspension due to adverse effects","[4]; rs12423809 (C12orf36) genotype, linear model",1.87
same,treatment withdrawal rate due to adverse effects,[5],12%
same,withdrawal rate due to headache,[5],0.6%
same,withdrawal rate due to insomnia,[5],1.2%
same,withdrawal rate due to nausea,[5],3%
same,withdrawal rate due to sleep alterations,[5],0.3%
